Results from patent publication US5439930A, “Biologically active n-acylprolydipeptides having antiamnestic, antihypoxic and anorexigenic effects” (Russian-American Institute for New Drug Development, priority 1992, dated 1995).
Where a SMILES comes first, the peptide text is derived from it. The star is where a group is joined. PhAc = O=C(Cc1ccccc1)*

Legend:
[1] = test system: rat's offspring damaged by prenatal alcoholization; assay: Active avoidance learning of offspring after prenatal alcoholization; type: in vivo, rats
Protocol: (§1) The cognitive impairment in the rat's offspring was provoked by prenatal alcoholization or prenatal hypoxia. Prenatal alcoholization was achieved by peroral administration of 5 g/kg/day (25% solution) ethanol to pregnant female rats during whole pregnancy. To achieve prenatal hypoxia the rats on the 15th day of pregnancy were placed into hypobaric barometric chamber (the "elevating" up 8500 m altitude; exposition for 2 hours).
(§2) The treatment of the offspring was performed from 8th day to 20th day. Compound I was administered in the dose of 0.1 mg/kg/day subcutaneously. The testing was performed on two-month old rats.
(§3) It has been established that both kinds of damage (alcoholization, hypoxia) caused learning disorders in active avoidance test. Early postnatal administration of Compound I restored learning activity (Table 9).

[2] = test system: memory decline evoked by scopolamine in randomly bred male albino rats; assay: Passive avoidance step-through, amnesia by scopolamine; type: in vivo; conditions: 0.1 mg/kg 15 min before learning
Protocol: (§4) Compounds according to the present invention, including the compounds described in Examples 1-11, were checked for their ability to prevent memory decline evoked by maximal electroshock (MES) or scopolamine in the passive avoidance step-through paradigm (equipment of Laffaette Co., USA). The experiments described herein (Examples 12, 13, 15, and 19) were carried out using randomly bred male albino rats of a weight of approximately 180-220 g. […] Amnesia was produced by transcorneal maximal electroshock immediately after learning or scopolamine (1 mg/kg, subcutaneously) administration 30 min. before learning. The retention was tested 24 hours later by the measurement of latency of the entering of the dark compartment.
(§5) The degree of antiamnestic activity was estimated according to Buttler's modified formula: [formula]
(§6) The higher the magnitude of this indicator the more is the antiamnestic activity.

24-month Wistar rats [3] = assay: Passive avoidance retention in aged rats; type: in vivo
Protocol: (§7) The influence of Compound I on age-related mental decline was studied in experiments on 24-month Wistar rats. The substance was administered chronically in the dose of 0.1 mg/kg/day during 24 days, intraperitoneally before the testing and 14 days during testing.
Chronic administration of Compound I facilitated the retention tested 24 hours and especially 14 days after learning in passive avoidance test (Table 11). It is evident from these experiments that Compound I is able to improve amnestic function in the old rats.

outbred albino male mice = assay: Acute habituation of locomotor activity (Optovarimex); type: in vivo
Protocol: The effect of Compound I on acute habituation of locomotor activity was estimated according to diminution of locomotions during 30 minutes. Experiments were performed on outbred albino male mice (18-22 g) placed in groups of 10 animals in registration cage (Optovarimex, Colomb., USA).

outbred male mice = assay: Gross behavior and acute toxicity; type: in vivo
Protocol: Compound I was checked for gross behavior and acute toxicity in outbred male mice (18-22 g).
In the dose of 1000 mg/kg compound I caused excitement in 50% of animals. In the dose of 5000 mg/kg i.p. compound I caused death in 50% of animals.

[4] = test system: memory decline evoked by maximal electroshock (MES) in randomly bred male albino rats; assay: Passive avoidance step-through, amnesia by maximal electroshock (MES); type: in vivo
Protocol: as §4, §5, §6

24-month Wistar rats [5] = assay: Locomotor activity and habituation in aged rats (Optovarimex); type: in vivo
Protocol: as §7
Registration of the locomotor activity in the Optovarimex multichannel analyzer has shown that Compound I increased the initial horizontal activity being administered chronically. […] This test is suitable for the study of nootropics. In the control group the coefficient of the habituation was 0.29.

outbred albino mice = assay: Hypobaric hypoxia survival (barometric chamber, 11,000 m); type: in vivo; conditions: 0.5 mg/kg 15 minutes before hypoxia, 1 hour exposition
Protocol: The protective effect of Compound I in hypoxia was assessed using the barometric chamber by "elevating" of the outbred albino mice (18-22 g) to the altitude of 11,000 m at a speed of 1000 m/min. After 1 hour exposition the percentage of surviving mice after 0.9% saline pretreatment was 15%.

[6] = test system: active avoidance learning, rats; assay: Active avoidance learning in shuttle-box test; type: in vivo
Description: The influence of Compound I on the active avoidance learning was studied in shuttle-box test (Ugo Basile, Italy). The conditioned reflex of active avoidance had been developed for 5 days with 50 daily trials for each rat. The learning task consisted in the rats' avoiding of the electric shock applied through the cage floor directly after sound. Rats could avoid the shock by moving into another compartment of the cage, but only while the sound was present (3 sec.).

[7] = test system: rat's offspring damaged by prenatal hypoxia; assay: Active avoidance learning of offspring after prenatal hypoxia; type: in vivo, rats
Protocol: as §1, §2, §3

[8] = day 1 of learning, 0.1 mg/kg/day s.c. from 8th to 20th day

CCOC(=O)CNC(=O)[C@@H]1CCCN1C(=O)Cc1ccccc1 [Compound I, N-phenacetyl-L-prolylglycine ethyl ester] (PhAc-Pro-Gly-OEt)
Rats with reflex of active avoidance [1, 8]: 0%
Rats with reflex of active avoidance ([1]; day 1 of retention): 78%
Rats with reflex of active avoidance ([1]; day 2 of learning): 0%
Rats with reflex of active avoidance ([1]; day 2 of retention): 89%
Rats with reflex of active avoidance ([1]; day 3 of learning): 55%
Rats with reflex of active avoidance ([1]; day 4 of learning): 82%
Aa (antiamnestic activity) ([2]; scopolamine 1 mg/kg s.c.): 55.5
Latency (sec.) Scopolamine + substance ([2]; scopolamine 1 mg/kg s.c. 30 min before trial): 64.1 s
Passive avoidance test (latency, sec) (24-month Wistar rats [3]; 24 hours after learning): 128 s
Passive avoidance test (latency, sec) (24-month Wistar rats [3]; 14 days after learning): 132 s
Habituation index (motor activity last 5 min / first 5 min of recording) (outbred albino male mice; 0.05 mg/kg, 15 min before registration): 30%
Habituation index (outbred albino male mice; 0.1 mg/kg): 10%
Habituation index (outbred albino male mice; 0.5 mg/kg): 15%
Habituation index (outbred albino male mice; 2.5 mg/kg): 25%
Habituation index (outbred albino male mice; 5.0 mg/kg): 27%
Initial locomotor activity (outbred albino male mice; dose range 0.05-5.0 mg/kg): without changing of initial locomotor activity
Stimulating effect of amphetamine (outbred male mice; 25 mg/kg): diminished the stimulating effect of amphetamine
Rectal temperature (outbred male mice; 1-10 mg/kg i.p.): did not change rectal temperature
Spontaneous motor activity (outbred male mice; 1-10 mg/kg i.p.): neither stimulated nor depressed the spontaneous motor activity
Stimulating effect of amphetamine on motor activity (outbred male mice; 1-10 mg/kg i.p.): did not enhance the stimulating effect of amphetamine
Excitement, % of animals (outbred male mice; 1000 mg/kg): 50%
Death, % of animals (outbred male mice; 5000 mg/kg i.p.): 50%
Lethality at 24 hours (outbred male mice; 500-3000 mg/kg i.p.): did not cause lethality
General condition (gross behavior) (outbred male mice; up to the dose of 500 mg/kg): did not disturb the general condition
Motor coordination (rota rod test) (outbred male mice; up to the dose of 500 mg/kg): did not change motor coordination
Latency (sec.) Amnesia + subst. ([4]; 0.1 mg/kg i.p. 15 min before training, MES after learning, retention 24 h later): 25 s
AA % (antiamnestic activity, Butler's modified formula) ([4]; 0.1 mg/kg i.p. 15 min before training, MES amnesia): 36%
Antiamnestic activity (Aa) ([4]; 0.1 mg/kg per os, MES amnesia): 19%
Antiamnestic activity (Aa) ([4]; 0.3 mg/kg per os, MES amnesia): 19%
Antiamnestic activity (Aa) ([4]; 0.4 mg/kg per os, MES amnesia): 23%
Antiamnestic activity (Aa) ([4]; 0.5 mg/kg per os, MES amnesia): 43%
Antiamnestic activity (Aa) ([4]; 0.7 mg/kg per os, MES amnesia): 52%
Antiamnestic activity (Aa) ([4]; 0.9 mg/kg per os, MES amnesia): 36%
Antiamnestic activity (Aa) ([4]; 1.0 mg/kg per os, MES amnesia): 10%
Antiamnestic activity (Aa) ([4]; 1.2 mg/kg per os, MES amnesia): 16%
Antiamnestic activity (Aa) ([4]; 1.5 mg/kg per os, MES amnesia): 10%
Coefficient of habituation (ratio - 5th min/1st min) (24-month Wistar rats [5]; 0.1 mg/kg/day i.p. chronically): 0.03
Locomotor activity (counts) (24-month Wistar rats [5]; 1st min. of registration, 0.1 mg/kg/day i.p. chronically): 422 counts
Locomotor activity (counts) (24-month Wistar rats [5]; 5th min. of registration): 13 counts
Percentage of surviving mice (outbred albino mice): 43.7%
Percentage of the rats reached the stable avoidance ([6]; day 1 of learning, 0.1 mg/kg daily i.p. 14 days before and during learning): 0
Percentage of the rats reached the stable avoidance ([6]; day 2 of learning, 0.1 mg/kg daily i.p.): 15
Percentage of the rats reached the stable avoidance ([6]; day 3 of learning, 0.1 mg/kg daily i.p.): 43
Percentage of the rats reached the stable avoidance ([6]; day 4 of learning, 0.1 mg/kg daily i.p.): 57
Percentage of the rats reached the stable avoidance ([6]; day 5 of learning, 0.1 mg/kg daily i.p.): 67
Rats with reflex of active avoidance [7, 8]: 0%
Rats with reflex of active avoidance ([7]; day 2 of learning): 0%
Rats with reflex of active avoidance ([7]; day 3 of learning): 25%
Rats with reflex of active avoidance ([7]; day 4 of learning): 68%
Rats with reflex of active avoidance ([7]; day 5 of learning): 88%
